The results in this text go back to article PMC3367910 (PLoS ONE, 2012).

For this test, the system named is T1, chlorpyrifos hydrolase (CPH).
T1 construct: native enzyme purified from mycelial cell extract; N-terminal MEPDGELSALTQGANS; gene not cloned
It counts as biochemical, Cladosporium cladosporioides.
Usually Km stands for the substrate concentration at which the rate is half of its maximum. On to `CCOP(=S)(OCC)Oc1nc(Cl)c(Cl)cc1Cl` [Chlorpyrifos, O, O-diethyl O-(3,5,6-trichloro-2-pyridyl) phosphorothioate], for which the Km worked out at 6.8 ± 0.4 µM.
With `CCOC(=O)CC(SP(=S)(OC)OC)C(=O)OCC` (centres unmarked) [Malathion], the Km worked out at 44.4 ± 2.1 µM.
For `COP(N)(=O)SC` (centres unmarked) [Methamidophos], the Km was found to be 31.8 ± 1.7 µM.
Under `COP(=S)(OC)Oc1ccc([N+](=O)[O-])cc1` [Methyl parathion] stands 12.5 ± 1.4 µM.
For the compound `CCOP(=S)(OCC)Oc1ccc([N+](=O)[O-])cc1` [Parathion], the Michaelis constant (Km) turned out to be 9.8 ± 0.3 µM.
